Assay results reported in patent publication US12084472B2 (Ardelyx, Inc., priority 2015, dated 2024).

Target: T1, human TGR5 (Homo sapiens, UniProt Q8TDU6)
T1 construct: expressed in transfected cells; host or cells: HEK293
T1 sequence (Q8TDU6 1-330): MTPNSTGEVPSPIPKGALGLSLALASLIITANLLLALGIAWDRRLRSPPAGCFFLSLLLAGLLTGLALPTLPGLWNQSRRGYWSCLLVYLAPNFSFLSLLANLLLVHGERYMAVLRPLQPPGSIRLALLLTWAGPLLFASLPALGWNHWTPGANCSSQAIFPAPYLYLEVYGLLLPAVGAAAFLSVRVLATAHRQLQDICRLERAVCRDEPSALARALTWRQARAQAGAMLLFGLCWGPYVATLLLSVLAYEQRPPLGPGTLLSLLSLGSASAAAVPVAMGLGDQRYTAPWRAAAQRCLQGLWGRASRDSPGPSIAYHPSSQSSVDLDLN
Test: Cell-based TGR5 assay (cAMP generation, HTRF)
Details: HEK293 cells stably transfected with human TGR5; cAMP by HTRF; 30 minutes at 37° C.; read-out: pEC50 Human TGR5 (converted)
Procedure, shortened: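 Read-out was HTRF detection of cAMP, converted to concentration via a standard curve and fitted (3-parameter logistic) for pEC50 and maximal response. Agonist stimulation used HEK293 cells stably transfected with human TGR5, incubated 30 min at 37° C in IBMX-containing buffer at 0.05 nM to 10 μM compound.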

Row | Structure (SMILES) | EC50
1 | CC(CCCC(=O)NC[C@H](O)[C@@H](O)[C@H](O)[C@H](O)CO)c1cc(Cl)c(CNC2(c3cnccc3-c3ccccc3OC3CC3)CC2)cc1Cl (stereo partly drawn) [Compound I-260, 5-[2,5-dichloro-4-[([1-[4-(2-cyclopropoxyphenyl)pyridin-3-yl]cyclopropyl]amino)methyl]phenyl]-N-[(2S,3R,4R,5R)-2,3,4,5,6-pentahydroxyhexyl]hexanamide] | < 100 nM
2 | Cc1ccc(Cl)c(CNC2(c3cnccc3-c3ccccc3OC3CC3)CC2)c1 [Compound I-33, N-[(2-chloro-5-methylphenyl)methyl]-1-[4-(2-cyclopropoxyphenyl)pyridin-3-yl]cyclopropan-1-amine] | < 100 nM
3 | CN(CCCNC[C@H](O)[C@@H](O)[C@H](O)[C@H](O)C(=O)O)C(=O)CCCCc1cc(Cl)c(COC2(c3cnccc3-c3ccccc3OC3CC3)CC2)cc1Cl [Compound I-180, (2S,3S,4R,5S)-6-[(3-{5-[2,5-dichloro-4-({1-[4-(2-cyclopropoxyphenyl)pyridin-3-yl]cyclopropoxy}methyl)phenyl]-N-methylpentanamido}propyl)amino]-2,3,4,5-tetrahydroxyhexanoic acid] | < 100 nM
4 | O=CN(CCCCc1cc(Cl)c(COC2(c3cnccc3-c3ccccc3OC3CC3)CC2)cc1Cl)C[C@H](O)[C@@H](O)[C@H](O)[C@H](O)CO [Compound I-80, N-(4-(2,5-dichloro-4-((1-(4-(2-cyclopropoxyphenyl)pyridin-3-yl)cyclopropoxy)methyl)phenyl)butyl)-N-((2S,3R,4R,5R)-2,3,4,5,6-pentahydroxyhexyl)formamide] | < 100 nM
5 | O=C([C@@H](O)[C@@H](O)[C@H](O)[C@@H](O)CO)N(CCCCCO)CCCCCSc1ccc(Cl)c(COC2(c3cnccc3-c3ccccc3OC3CC3)CC2)c1 [Compound I-606, (2S,3S,4R,5S)-N-(5-{[4-chloro-3-({1-[4-(2-cyclopropoxyphenyl)pyridin-3-yl]cyclopropoxy}methyl)phenyl]sulfanyl}pentyl)-2,3,4,5,6-pentahydroxy-N-(5-hydroxypentyl)hexanamide] | < 100 nM
6 | CN(C[C@H](O)[C@@H](O)[C@H](O)[C@H](O)CO)S(=O)(=O)c1ccc(Cl)c(COC2(c3cnccc3-c3ccccc3OC3CC3)CC2)c1 [Compound I-398, (2S,3R,4R,5R)-S-[4-chloro-3-({1-[4-(2-cyclopropoxyphenyl)pyridin-3-yl]cyclopropoxy}methyl)phenyl]-2,3,4,5,6-pentahydroxy-N-methylhexane-1-sulfonamido] | < 100 nM
7 | Clc1ccc(Cl)c(CNC2(c3cnccc3-c3ccccc3OC3COC3)CC2)c1 [Compound I-19, N-[(2,5-dichlorophenyl)methyl]-1-{4-[2-(oxetan-3-yloxy)phenyl]pyridin-3-yl}cyclopropan-1-amine] | < 100 nM
8 | O=C(CCCSc1ccc(Cl)c(COC2(c3cnccc3-c3ccccc3OC3CC3)CC2)c1)N(CCCO)C[C@H](O)[C@@H](O)[C@H](O)[C@H](O)CO [Compound I-661, 4-{[4-chloro-3-({1-[4-(2-cyclopropoxyphenyl)pyridin-3-yl]cyclopropoxy}methyl)phenyl]sulfanyl}-N-(3-hydroxypropyl)-N-[(2S,3R,4R,5R)-2,3,4,5,6-pentahydroxyhexyl]butanamide] | < 100 nM
9 | CC(C)(OCc1cc(Cl)ccc1Cl)c1cnccc1-c1ccccc1OC1CC1 [Compound I-740, 4-(2-cyclopropoxyphenyl)-3-(2-((2,5-dichlorobenzyl)oxy)propan-2-yl)pyridine] | < 100 nM
10 | CS(=O)(=O)NCCCCN(CCCCSc1ccc(Cl)c(COC2(c3cnccc3-c3ccccc3OC3CC3)CC2)c1)C(=O)[C@@H](O)[C@@H](O)[C@H](O)[C@@H](O)CO [Compound I-570, (2S,3S,4R,5S)-N-(4-{[4-chloro-3-({1-[4-(2-cyclopropoxyphenyl)pyridin-3-yl]cyclopropoxy}methyl)phenyl]sulfanyl}butyl)-2,3,4,5,6-pentahydroxy-N-(4-methanesulfonamidobutyl) hexanamide] | < 100 nM
11 | CCCN(C[C@H](O)[C@@H](O)[C@H](O)[C@H](O)CO)C(=O)CCCCc1cc(Cl)c(COC2(c3cnccc3-c3ccccc3OC3CC3)CC2)cc1Cl [Compound I-129, 5-[2,5-dichloro-4-({1-[4-(2-cyclopropoxyphenyl)pyridin-3-yl]cyclopropoxy}methyl)phenyl]-N-[(2S,3R,4R,5R)-2,3,4,5,6-pentahydroxyhexyl]-N-propylpentanamide] | < 100 nM
12 | Cc1ccc(C(C)CCCC(=O)N(CCC(=O)N(C)C)C[C@H](O)[C@@H](O)[C@H](O)[C@H](O)CO)cc1CNC1(c2cnccc2-c2ccccc2OC2CC2)CC1 (stereo partly drawn) [Compound I-366, 5-{3-[({1-[4-(2-cyclopropoxyphenyl)pyridin-3-yl]cyclopropyl}amino)methyl]-4-methylphenyl}-N-[2-(dimethylcarbamoyl)ethyl]-N-[(2S,3R,4R,5R)-2,3,4,5,6-pentahydroxyhexyl]hexanamide] | 126 to 1000 nM
13 | CN(C[C@H](O)[C@@H](O)[C@H](O)[C@H](O)CO)C(=O)NS(=O)(=O)NCCCCc1cc(Cl)c(COC2(c3cnccc3-c3ccccc3OC3CC3)CC2)cc1Cl (stereo in doubt) [Compound I-194, 1-({4-[2,5-dichloro-4-({1-[4-(2-cyclopropoxyphenyl)pyridin-3-yl]cyclopropoxy}methyl)phenyl]butyl}sulfamoyl)-3-methyl-3-[(2S,3R,4R,5R)-2,3,4,5,6-pentahydroxyhexyl]urea] | < 100 nM
14 | O=C(CN1CCN(S(=O)(=O)c2ccc(Cl)c(COC3(c4cnccc4-c4ccccc4OC4CC4)CC3)c2)CC1)NC[C@H](O)[C@@H](O)[C@H](O)[C@H](O)CO [Compound I-440, 2-{4-[4-chloro-3-({1-[4-(2-cyclopropoxyphenyl)pyridin-3-yl]cyclopropoxy}methyl)benzenesulfonyl]piperazin-1-yl}-N-[(2S,3R,4R,5R)-2,3,4,5,6-pentahydroxyhexyl]acetamide] | 126 to 1000 nM
15 | O=C(O)CN1CCN(C(=O)CCCCc2cc(Cl)c(COC3(c4cnccc4-c4ccccc4OC4CC4)CC3)cc2Cl)CC1 [Compound I-88, 2-(4-(5-(2,5-dichloro-4-((1-(4-(2-cyclopropoxyphenyl)pyridin-3-yl)cyclopropoxy)methyl)phenyl)pentanoyl)piperazin-1-yl)acetic acid] | < 100 nM
16 | CN(CCSc1ccc(Cl)c(CNC2(c3cnccc3-c3ccccc3OC3CC3)CC2)c1)C(=O)[C@@H](O)[C@@H](O)[C@H](O)[C@@H](O)CO [Compound I-542, (2S,3S,4R,5S)-N-[2-({4-chloro-3-[({1-[4-(2-cyclopropoxyphenyl)pyridin-3-yl]cyclopropyl}amino)methyl]phenyl}sulfanyl)ethyl]-2,3,4,5,6-pentahydroxy-N-methylhexanamide] | < 100 nM
17 | CN(CCCCNC(=O)N[C@@H](CO)[C@@H](O)[C@H](O)[C@H](O)CO)S(=O)(=O)c1cc(CNC2(c3cnccc3-c3ccccc3OC3CC3)CC2)c(Cl)cc1F [Compound I-475, 1-(4-{N-methyl4-chloro-5-[({1-[4-(2-cyclopropoxyphenyl)pyridin-3-yl]cyclopropyl}amino)methyl]-2-fluorobenzenesulfonamido}butyl)-3-[(2S,3R,4S,5R)-1,3,4,5,6-pentahydroxyhexan-2-yl]urea] | < 100 nM
18 | Cc1ccc(CCCCC(=O)N(C)C[C@H](O)[C@@H](O)[C@H](O)[C@H](O)CO)cc1COC1(c2cnccc2-c2ccccc2OC2CC2)CC1 (stereo in doubt) [Compound I-236, 5-[3-({1-[4-(2-cyclopropoxyphenyl)pyridin-3-yl]cyclopropoxy}methyl)-4-methylphenyl]-N-methyl-N-[(2S,3R,4R,5R)-2,3,4,5,6-pentahydroxyhexyl]pentanamide] | < 100 nM
19 | CN(CCCCNS(=O)(=O)c1ccc(Cl)c(COC2(c3cnccc3-c3ccccc3OC3CC3)CC2)c1)C(=O)[C@@H](O)[C@@H](O)[C@H](O)[C@@H](O)CO [Compound I-460, (2S,3S,4R,5S)-N-{4-[4-chloro-3-({1-[4-(2-cyclopropoxyphenyl)pyridin-3-yl]cyclopropoxy}methyl)benzenesulfonamido]butyl}-2,3,4,5,6-pentahydroxy-N-methylhexanamide] | < 100 nM
20 | CNC(=O)CN(C[C@H](O)[C@@H](O)[C@H](O)[C@H](O)CO)C(=O)CCCCc1cc(Cl)c(COC2(c3cnccc3-c3ccccc3OC3CC3)CC2)cc1Cl (stereo in doubt) [Compound I-219, 5-[2,5-dichloro-4-({1-[4-(2-cyclopropoxyphenyl)pyridin-3-yl]cyclopropoxy}methyl)phenyl]-N-[(methylcarbamoyl)methyl]-N-[(2S,3R,4R,5R)-2,3,4,5,6-pentahydroxyhexyl]pentanamide] | < 100 nM
21 | COc1ccccc1-c1ccncc1C1(NCc2cc(Cl)c(CCCCC(=O)N(C)C[C@H](O)[C@@H](O)[C@H](O)[C@H](O)CO)cc2Cl)CC1 [Compound I-134, 5-{2,5-dichloro-4-[({1-[4-(2-methoxyphenyl)pyridin-3-yl]cyclopropyl}amino)methyl]phenyl}-N-methyl-N-[(2S,3R,4R,5R)-2,3,4,5,6-pentahydroxyhexyl]pentanamide] | 126 to 1000 nM
22 | NC(=O)CN(CCCCc1cc(Cl)c(COC2(c3cnccc3-c3ccccc3OC3CC3)CC2)cc1Cl)C(=O)[C@@H](O)[C@@H](O)[C@H](O)[C@@H](O)CO [Compound I-82, (2S,3S,4R,5S)-N-(carbamoylmethyl)-N-{4-[2,5-dichloro-4-({1-[4-(2-cyclopropoxyphenyl)pyridin-3-yl]cyclopropoxy}methyl)phenyl]butyl}-2,3,4,5,6-pentahydroxyhexanamide] | < 100 nM
